What was measured:
[1] = clinical trials; cited from earlier work
HuH-7 cells [2] = assay: Intracellular ROS generation, DCFH-DA probe; type: cell-based; settings: HuH-7, equivalent HL concentration 2 μg/mL, 2 h
Excerpt: Given the efficient •OH production in water induced by 1 and 2, we next investigated in vitro ROS generation by 1 and 2 in the representative HuH-7 cell line using 2′,7′-dichlorodihydrofluorescein diacetate (DCFH-DA) as a fluorescence probe and compared it with that of HL [34, 35]. The non-emissive DCFH-DA can be readily uptaken by the cell, where it is hydrolyzed into 2,7-dichlorodihydrofluorescein (DCFH) by cellular enzymes. Upon oxidation by ROS, DCFH can convert to 2,7-dichlorofluorescein (DCF), which gives bright green fluorescence.
HuH-7 cells were introduced into a 12-well plate (4 × 10^5 per well) in 1 mL of growing media (DMEM + 10% FBS + 1% P/S), and the cells were incubated at 37 °C under 5% CO2 for 24 h for attachment. The growing media were removed, and the wells were replenished with HL, 1, and 2 in 1 mL of growing media (with 2 ppm of DMSO) with equivalent HL concentrations of 2 μg/mL. The cells were incubated for an additional 2 h, and then the culturing media was replaced with […] DCFH-DA in DMEM + 1% P/S (1 mL), prepared by diluting (1:1000) a concentrated DCFH-DA following the supplied protocols. The cells were incubated for a further 20 min, and then the culturing media was removed. […]

Hep-G2 cells = assay: CCK-8 cytotoxicity assay, Hep-G2; type: cell-based; settings: Homo sapiens, HepG2; Hep-G2, CCK-8, 72 h incubation, n = 3
Protocol: (§1) The cytotoxicity of HL, 1, and 2 against three hepatocellular carcinoma cell lines Hep-G2, PLC/PRF/5, and HuH-7 were evaluated by the cell counting kit-8 (CCK-8; APExBIO Technology, Houston, TX, USA) assay.
(§2) The HuH-7 cell line was cultured in DMEM + 10% FBS + 1% P/S and DMEM + 1% P/S. Cells grew as a monolayer and were detached upon confluence using trypsin (0.5% w/v in PBS). The cells were harvested from the cell culture medium by incubation in trypsin solution for 3 min, and they were then centrifuged with the supernatant and subsequently discarded. A 3 mL portion of serum-supplemented cell culture medium was added to neutralize any residual trypsin. The cells were re-suspended in serum-supplemented DMEM at a concentration of 5 × 10^4 cells/mL. […] After incubation, 100 μL of culture medium (DMEM + 10% FBS + 1% P/S) and 10 μL of CCK-8 was introduced and cultured for an additional 2 h before spectrophotometric measurement at 450 nm on a microplate reader. The relative cell viability (%) related to control cells was calculated using the equation: V%=[A]experimental−[A]blank/[A]control−[A]blank×100% where V% is the percentage of cell viability, [A]experimental is the absorbance of the wells culturing the treated cells, [A]blank is the absorbance of the blank, and [A]control is the absorbance of the wells culturing untreated cells. […]

CD®(SD) IGS rats = assay: Toxicological study of HL, daily PO administration; type: in vivo
Protocol: Their weight and status were monitored and compared with the control group (groups 1 and 2) that was fed sterilizing solutions. […] This highlights that a 5 mg kg^−1 drug dosage of HL by PO administration is safe for in vivo studies.
The weight of the rats was continuously monitored over 27 days, and they were fed on day 1, 4, 8, 13, 16, 19, and 23.

[3] = Stability of MeOH solutions by UV-Vis; settings: HL/L concentration 30 μg/mL, kept for 72 h
[4] = Hydroxyl radical (•OH) production from H2O2, TMB assay; settings: 5, 10, 20, 30 μg/mL HL or equivalent HL, 100 μM H2O2, 20 min incubation
Protocol: The generation of •OH from H2O2 by HL, 1, and 2 was assayed by 3,3′,5,5′-tetramethylbenzidine (TMB) [12, 28, 29]. The colorless TMB can be quickly oxidized by •OH to give a characteristic blue charge-transfer complex oxTMB with intense absorption at 652 nm [30, 31]. Different concentrations of HL (5, 10, 20, 30 μg/mL) or 1 and 2 containing equivalent HL were treated with (TMB) solution containing 100 μM H2O2, which is assumed as approximately the concentration reported to be present in tumor cells, or five times that in normal cells [32, 33].

PLC/PRF/5 cells = assay: CCK-8 cytotoxicity assay, PLC/PRF/5; type: cell-based; settings: Homo sapiens; PLC/PRF/5, CCK-8, 72 h incubation, n = 3
Protocol: as §1, §2

[5] = In vivo pharmacokinetic study of HL (plasma, HPLC); parameters: species or system CD®(SD) IGS rats
Protocol: For pharmacokinetic studies, CD®(SD) IGS rats (5−6 weeks old) were randomly divided into two groups (three for each group) for oral administration (per os, PO) or intravenous administration (i.v.) of HL with dosages of 30 mg kg^−1 and 0.5 mg kg^−1, respectively (Tables S3 and S4). The blood was then collected from the orbital sinus with a heparinized syringe at different time intervals (0.5, 1.0, 2.0, 4.0, 8.0, and 24 h for PO, and 0.03, 0.5, 1.0, 2.0, 4.0, 8.0, and 24 h for i.v.).
CD®(SD) IGS rats (5–6 weeks old) were purchased from Beijing Vital River Laboratory Animal Technology Co., Ltd. (Beijing, China). All animal experiments were conducted in accordance with the requirements of the Experimental Animal Welfare Ethics Committee of Transcenta Diagnostic Technology (Suzhou) Co., Ltd. (PZ-20211210001). For pharmacokinetic experiments, SD rats were randomly divided into two groups, with 3 for PO administration (30 mg kg^−1) and i.v. administration (0.5 mg kg^−1), respectively. Plasma was collected from the jugular vein with the presence of a heparinized syringe at different time intervals, viz. 0.5, 1.0, 2.0, 4.0, 8.0, and 24 h for PO and 0.03, 0.5, 1.0, 2.0, 4.0, 8.0, and 24 h for i.v. Plasma was first centrifuged at 3500 rpm for 10 min, and then 0.05 mL of the plasma was extracted; trifluoroacetic acid was used to acid precipitate protein, and NaOH was used to neutralize the solution. The mixture was diluted using MeCN: H2O (5:5 v/v). After 10 min of precipitating, supernatant fluids were collected by centrifugation at 10,000 rpm for 5 min and filtered with a syringe through a 0.22 μm hydrophilic membrane filter and measured using the HPLC method. For the HPLC assay, the analytical column was an Agilent ZORBAX SB C18 column (4.6 mm × 150 mm, 5 μm). The mobile phase was MeCN:H2O (5:5 v/v), the flow rate of the mobile phase was 0.8 mL min^−1, and the UV detector was set at 245 nm.

HuH-7 cells [6] = assay: CCK-8 cytotoxicity assay, HuH-7; type: cell-based; settings: Homo sapiens; HuH-7, CCK-8, 72 h incubation, n = 3
Protocol: as §1, §2

[7] = CD(SD) IGS (SD), rat, plasma, iv, 0.5 mg kg−1, mean, n = 3
[8] = CD(SD) IGS (SD), rat, plasma, iv, 0.5 mg/kg, 0.5 mg kg−1, mean, n = 3
[9] = CD(SD) IGS (SD), rat, plasma, po, 30 mg/kg, 30 mg kg−1, mean, n = 3
[10] = CD(SD) IGS (SD), rat, plasma, PO, 30 mg kg−1, mean, n = 3

NC(=S)NN=Cc1ccc(O)cn1 [Compound 5-HP, 5-hydroxypicolinaldehyde thiosemicarbazone]
side effects [1]: severe hematological and gastrointestinal side effects

S=C(NN=C(c1ccccn1)c1ccccn1)N1CCN(c2nccs2)CC1 [HL, N′-(di(pyridin-2-yl)methylene)-4-(thiazol-2-yl)piperazine-1-carbothiohydrazide]
intracellular ROS generation (DCF fluorescence) (HuH-7 cells [2]): negligible ROS | IC50 (Hep-G2 cells): 78.8 µM | body weight of rats (CD®(SD) IGS rats; daily 5 mg kg−1 (12.2 μmol kg−1), groups 3 and 4, similar to control groups 1 and 2): constantly growing | rats with abnormal behaviors (decreasing food uptake, cachexia, lethargy) on day 9, which died or were euthanized after drug suspension (CD®(SD) IGS rats; daily 10 mg kg−1 (24.4 μmol kg−1), groups 5 and 6): four of six | stability of MeOH solution (UV-Vis absorption pattern) [3]: remained stable | generation of •OH from H2O2 (oxTMB, absorption at 652 nm) [4]: no oxTMB found | IC50 (PLC/PRF/5 cells): 3.26 µM | AUC(0-inf) [5, 7]: 5700 ± 2650 ng·h/mL | AUC(0-t) [5, 7]: 4210 ng·h/mL | C0 [5, 7]: 858 ng/mL | MRT last [5, 7]: 7.85 h | half-life [5, 7]: 713 ± 99.6 min | clearance ([5]; CD(SD) IGS (SD), rat, plasma, iv, 0.5 mg kg−1, mean, n = 3, read-out: Cl_obs (converted)): 1.8 mL/min/kg | concentration at 0.03 h ([5]; CD(SD) IGS (SD), rat, plasma, iv, 0.5 mg kg−1, sampling time 0.03 h): 806 ng/mL | concentration at 0.5 h ([5]; CD(SD) IGS (SD), rat, plasma, iv, 0.5 mg kg−1, sampling time 0.50 h): 349 ng/mL | concentration at 1 h ([5]; CD(SD) IGS (SD), rat, plasma, iv, 0.5 mg kg−1, sampling time 1.00 h): 341 ng/mL | concentration at 2 h ([5]; CD(SD) IGS (SD), rat, plasma, iv, 0.5 mg kg−1, sampling time 2.00 h): 372 ng/mL | concentration at 4 h ([5]; CD(SD) IGS (SD), rat, plasma, iv, 0.5 mg kg−1, sampling time 4.00 h): 240 ng/mL | concentration at 8 h ([5]; CD(SD) IGS (SD), rat, plasma, iv, 0.5 mg kg−1, sampling time 8.00 h): 163 ng/mL | concentration at 24 h ([5]; CD(SD) IGS (SD), rat, plasma, iv, 0.5 mg kg−1, sampling time 24.00 h): 83.8 ng/mL | Cmax [5, 8]: 806 ± 46.7 ng/mL | Tmax [5, 8]: 1.8 min | Cmax [5, 9]: 472 ng/mL | Tmax [5, 9]: 70.2 min | AUC(0-inf) [5, 10]: 10400 ± 5310 ng·h/mL | AUC(0-t) [5, 10]: 5340 ng·h/mL | MRT last [5, 10]: 9.4 h | half-life [5, 10]: 1300 ± 564 min | CL/F ([5]; CD(SD) IGS (SD), rat, plasma, PO, 30 mg kg−1, mean, n = 3, read-out: Cl_F_obs (converted)): 55.6 mL/min/kg | concentration at 0.5 h ([5]; CD(SD) IGS (SD), rat, plasma, PO, 30 mg kg−1, sampling time 0.50 h): 242 ng/mL | concentration at 1 h ([5]; CD(SD) IGS (SD), rat, plasma, PO, 30 mg kg−1, sampling time 1.00 h): 426 ng/mL | concentration at 2 h ([5]; CD(SD) IGS (SD), rat, plasma, PO, 30 mg kg−1, sampling time 2.00 h): 410 ng/mL | concentration at 4 h ([5]; CD(SD) IGS (SD), rat, plasma, PO, 30 mg kg−1, sampling time 4.00 h): 316 ng/mL | concentration at 8 h ([5]; CD(SD) IGS (SD), rat, plasma, PO, 30 mg kg−1, sampling time 8.00 h): 218 ng/mL | concentration at 24 h ([5]; CD(SD) IGS (SD), rat, plasma, PO, 30 mg kg−1, sampling time 24.00 h): 145 ng/mL | Vz_F_obs ([5]; PO, 30 mg kg−1, mean, n = 3): 93074.16 mL/kg | Vss_obs ([5]; i.v., 0.5 mg kg−1, mean, n = 3): 1755.47 mL/kg | Vz_obs ([5]; i.v., 0.5 mg kg−1, mean, n = 3): 1752.31 mL/kg | IC50 (HuH-7 cells [6]): 192 µM

S=C(N/N=C1\CCCc2cccnc21)N1CCN(c2ccccn2)CC1 [COTI-2, 4-(pyridine-2-yl)-N-([(8E)-5,6,7,8-tetrahydroquinolin-8-ylidene]amino)piperazine-1-carbothioamide]
side effects [1]: drug resistance and other adverse effects (i.e., nausea, vomiting, and fatigue)

NC(=S)NN=Cc1ncccc1N [Triapine, 3-aminopyridine-2-carboxaldehyde thiosemicarbazone]
side effects [1]: formation of methemoglobin hypoxia

— PMC11357102, “Thiazole Functionalization of Thiosemicarbazone for Cu(II) Complexation: Moving toward Highly Efficient Anticancer Drugs with Promising Oral Bioavailability” (Molecules, 2024)
